Experimental data reported in patent US8962844B2, “1,3,4-oxadiazole and 1,3,4-thiadiazole β-lactamase inhibitors” (priority 2012, dated 2015).
Counter-ions that a name gives are not always drawn.

Test system: bacterial strains that express the class D cephalosporinase OXA-15
Assay: Standard BLI potentiation MIC / synergy MIC (sMIC) assays run in the presence of a β-lactam, OXA-15 expressing strains
Format: cell-based, E. coli
Settings: BLI in combination with a β-lactam; comparison with Avibactam (comparator compound CCC)
From the text: Unless otherwise indicated, the activity of the BLI compounds can be described by the MIC value obtained from a Synergy MIC assay or a BLI potentiation assay (e.g as described herein), both of which are run in the presence of a β-lactam.
A set of β-lactamase expressing isogenic E. coli strains was constructed by cloning a β-lactamase gene into a customized derivative of pBR322 (GenBank Accession Number J01749) and transforming the engineered plasmids into E. coli. The NdeI restriction site within the plasmid backbone of pBR322 was removed to generate pBR322 ΔNdeI. The pBR322 ΔNdeI vector itself, minus the blaTEM-1 gene, was amplified using two primers: (1) pBR-Pbla 5′-cgcatatgactettectttttcaatattattg-3, SEQ ID 1, a primer with an engineered NdeI restriction site at the 3′ end of the blaTEM-1 promoter and (2) pBR-vec-1 5′-[…]-3′, SEQ ID 2, a primer with an engineered BamHI restriction site at the 3′ end of the blaTEM-1 open reading frame. The chloramphenicol resistance gene, cat, was generated by PCR amplification from pKD3 (GenBank Accession Number AY048742) using primers with an engineered NdeI restriction site at the 5′ end (Pbla-cat 5′-[…]-3′, SEQ ID 3) and an engineered BamHI restriction site at the 3′ end (Vec-1-cat 5′-[…]-3′, SEQ ID 4) of the resistance gene. The two PCR products, pBR322 ΔNdeI and cat were ligated together generating pBR-CBST (pBR322 ΔNdeI ΔTEM-1::cat Seq. ID 5) which retains both the pBR322 tetracycline resistance cassette, tetA, and the plasmid origin of replication but the blaTEM-1 gene was replaced by the cat gene.
Using this engineering strategy a number of plasmids producing β-lactamase genes from different classes (see below) were generated using synthetic genes with an engineered NdeI restriction site at the 5′ end and BamHI restriction site at the 3′ end of each gene (GenScript). Both the synthetic β-lactamase genes and cat gene were ligated into the NdeI/BamHI sites of the pBR322 ΔNdeI PCR product and transformed into electrocompetent E. coli ElectroMax DH10B (Invitrogen/Life Technologies). E. coli DH10B harboring the recombinant plasmids were selected on LB agar (supplemented with 25 μg/mL tetracycline) and single isolated colonies were then inoculated into 5 mL LB media (supplemented with 25 μg/mL tetracycline), and incubated at 37° C. with aeration (250 rpm) for 18 hrs. The cultures were frozen back at −80° C. in 20% glycerol. The DNA sequence of the cloned β-lactamase genes was confirmed. The β-lactamase gene expression in the recombinant E. coli strains was driven by the blaTEM-1 promoter in the pBR-CBST plasmid and was characterized by MIC profiling of the E. coli recombinant strains against comparator β-lactam/BLI combinations in broth microdilution assay.
The experimental protocol was performed according to Clinical and Laboratory Standards Institute (CLSI) guidelines with modifications as described below (CLSI guidelines can be derived from the CLSI document M07-A9 published in January 2012: “Methods for Dilution Antimicrobial Susceptibility Tests for Bacteria That Grow Aerobically; Approved Standard-Ninth Edition”).
To prepare for MIC testing, frozen glycerol stocks of clinical isolates (Klebsiella pneumoniae, Eschericia coli, Enterobacter spp, Citrobacter spp, or Pseudomonas aeruginosa) were used to streak for isolated colonies on rich, non-selective, tryptic soy agar containing 5% sheep's blood (TSAB). Frozen glycerol stocks of laboratory engineered, isogenic E. coli strains, which contain cloned β-lactamase expressing plasmids were used to streak for isolated colonies on rich, selective LB agar supplemented with 25 μg/mL tetracycline to maintain the plasmid. All strains were incubated at 37° C. for 18-24 hrs.
On the day of testing, primary cultures were started by scraping off 5-10 colonies from the TSAB plates containing clinical strains or the tetracycline supplemented LB plates containing engineered strains. […]

Structure (SMILES)	activity against bacterial strains that express the class D cephalosporinase OXA-15, compared with Avibactam
N=C(N)NCc1nnc([C@@H]2CC[C@@H]3CN2C(=O)N3OS(=O)(=O)O)o1 [Compound 704, (2S,5R)-2-(5-(guanidinomethyl)-1,3,4-oxadiazol-2-yl)-7-oxo-1,6-diazabicyclo[3.2.1]octan-6-yl hydrogen sulfate]	more active than Avibactam
Nc1nnc([C@@H]2CC[C@@H]3CN2C(=O)N3OS(=O)(=O)O)o1 [Compound 707, (2S,5R)-2-(5-amino-1,3,4-oxadiazol-2-yl)-7-oxo-1,6-diazabicyclo[3.2.1]octan-6-yl hydrogen sulfate]	more active than Avibactam
N=C(N)N1CCC(c2nnc([C@@H]3CC[C@@H]4CN3C(=O)N4OS(=O)(=O)O)o2)CC1 [Compound 712, (2S,5R)-2-(5-(1-carbamimidoylpiperidin-4-yl)-1,3,4-oxadiazol-2-yl)-7-oxo-1,6-diazabicyclo[3.2.1]octan-6-yl hydrogen sulfate]	more active than Avibactam
O=C1N2C[C@@H](CC[C@H]2c2nnc(N3CCNCC3)o2)N1OS(=O)(=O)O [Compound 713, (2S,5R)-7-oxo-2-(5-(piperazin-1-yl)-1,3,4-oxadiazol-2-yl)-1,6-diazabicyclo[3.2.1]octan-6-yl hydrogen sulfate]	more active than Avibactam
N=C(N)NCCCc1nnc([C@@H]2CC[C@@H]3CN2C(=O)N3OS(=O)(=O)O)o1 [Compound 714, (2S,5R)-2-(5-(3-guanidinopropyl)-1,3,4-oxadiazol-2-yl)-7-oxo-1,6-diazabicyclo[3.2.1]octan-6-yl hydrogen sulfate]	more active than Avibactam
NCC(O)c1nnc([C@@H]2CC[C@@H]3CN2C(=O)N3OS(=O)(=O)O)o1 (stereo partly drawn) [Compound 715, (2S,5R)-2-(5-(2-amino-1-hydroxyethyl)-1,3,4-oxadiazol-2-yl)-7-oxo-1,6-diazabicyclo[3.2.1]octan-6-yl hydrogen sulfate]	more active than Avibactam
NCCNCCc1nnc([C@@H]2CC[C@@H]3CN2C(=O)N3OS(=O)(=O)O)o1 [Compound 716, (2S,5R)-2-(5-(2-((2-aminoethyl)amino)ethyl)-1,3,4-oxadiazol-2-yl)-7-oxo-1,6-diazabicyclo[3.2.1]octan-6-yl hydrogen sulfate]	more active than Avibactam
NCC(N)c1nnc([C@@H]2CC[C@@H]3CN2C(=O)N3OS(=O)(=O)O)o1 (stereo partly drawn) [Compound 717, (2S,5R)-2-(5-(1,2-diaminoethyl)-1,3,4-oxadiazol-2-yl)-7-oxo-1,6-diazabicyclo[3.2.1]octan-6-yl hydrogen sulfate]	more active than Avibactam
O=C1N2C[C@@H](CC[C@H]2c2nnc(C3CCNCC3)s2)N1OS(=O)(=O)O [Compound 719, (2S,5R)-7-oxo-2-(5-(piperidin-4-yl)-1,3,4-thiadiazol-2-yl)-1,6-diazabicyclo[3.2.1]octan-6-yl hydrogen sulfate]	more active than Avibactam
O=C1N2C[C@@H](CC[C@H]2c2nnc(CC3CNC3)o2)N1OS(=O)(=O)O [Compound 725, (2S,5R)-2-(5-(azetidin-3-ylmethyl)-1,3,4-oxadiazol-2-yl)-7-oxo-1,6-diazabicyclo[3.2.1]octan-6-yl hydrogen sulfate]	more active than Avibactam
NCC(O)Cc1nnc([C@@H]2CC[C@@H]3CN2C(=O)N3OS(=O)(=O)O)o1 (stereo partly drawn) [Compound 733, (2S,5R)-2-(5-(3-amino-2-hydroxypropyl)-1,3,4-oxadiazol-2-yl)-7-oxo-1,6-diazabicyclo[3.2.1]octan-6-yl hydrogen sulfate]	more active than Avibactam
N=C(N)N[C@H]1C[C@H](c2nnc([C@@H]3CC[C@@H]4CN3C(=O)N4OS(=O)(=O)O)o2)C1 [Compound 748, (2S,5R)-2-(5-((1r,3S)-3-guanidinocyclobutyl)-1,3,4-oxadiazol-2-yl)-7-oxo-1,6-diazabicyclo[3.2.1]octan-6-yl hydrogen sulfate]	more active than Avibactam
N[C@H]1C[C@H](NCc2nnc([C@@H]3CC[C@@H]4CN3C(=O)N4OS(=O)(=O)O)o2)C1 [Compound 757, (2S,5R)-2-(5-((((1r,3S)-3-aminocyclobutyl)amino)methyl)-1,3,4-oxadiazol-2-yl)-7-oxo-1,6-diazabicyclo[3.2.1]octan-6-yl hydrogen sulfate]	more active than Avibactam
O=C1N2C[C@@H](CC[C@H]2c2nnc(CNC3CCNCC3)o2)N1OS(=O)(=O)O [Compound 769, (2S,5R)-7-oxo-2-(5-((piperidin-4-ylamino)methyl)-1,3,4-oxadiazol-2-yl)-1,6-diazabicyclo[3.2.1]octan-6-yl hydrogen sulfate]	more active than Avibactam
NC1CCN(c2nnc([C@@H]3CC[C@@H]4CN3C(=O)N4OS(=O)(=O)O)o2)CC1 [Compound 773, (2S,5R)-2-(5-(4-aminopiperidin-1-yl)-1,3,4-oxadiazol-2-yl)-7-oxo-1,6-diazabicyclo[3.2.1]octan-6-yl hydrogen sulfate]	more active than Avibactam
O=C1N2C[C@@H](CC[C@H]2c2nnc([C@@H]3CNCCN3)o2)N1OS(=O)(=O)O [Compound 778, (2S,5R)-7-oxo-2-(5-((S)-piperazin-2-yl)-1,3,4-oxadiazol-2-yl)-1,6-diazabicyclo[3.2.1]octan-6-yl hydrogen sulfate]	more active than Avibactam
N[C@H]1CC[C@@H](c2nnc([C@@H]3CC[C@@H]4CN3C(=O)N4OS(=O)(=O)O)o2)CC1 [Compound 780, (2S,5R)-2-(5-((1s,4R)-4-aminocyclohexyl)-1,3,4-oxadiazol-2-yl)-7-oxo-1,6-diazabicyclo[3.2.1]octan-6-yl hydrogen sulfate]	more active than Avibactam
N[C@H]1CC[C@H](c2nnc([C@@H]3CC[C@@H]4CN3C(=O)N4OS(=O)(=O)O)o2)CC1 [Compound 781, (2S,5R)-2-(5-((1r,4S)-4-aminocyclohexyl)-1,3,4-oxadiazol-2-yl)-7-oxo-1,6-diazabicyclo[3.2.1]octan-6-yl hydrogen sulfate]	more active than Avibactam
O=C1N2C[C@@H](CC[C@H]2c2nnc(CCCN3CCNCC3)o2)N1OS(=O)(=O)O [Compound 792, (2S,5R)-7-oxo-2-(5-(3-(piperazin-1-yl)propyl)-1,3,4-oxadiazol-2-yl)-1,6-diazabicyclo[3.2.1]octan-6-yl hydrogen sulfate]	more active than Avibactam
